Literature values in paper PMC2933614, “Quantitative in vitro and in vivo pharmacological profile of CE-178253, a potent and selective cannabinoid type 1 (CB1) Receptor Antagonist” (BMC Pharmacology, 2010).

Columns and labels:
[1] = parameters: method as in PMID 12055133; conditions: 0.5 mg/kg; 2-AG-mediated hyperphagia; cited from earlier work
CB1 receptor = system: CB1 receptor; parameters: method as in PMID 17327489; conditions: cited from earlier work

Row | SMILES | Attenuation of FI [1] | Receptor occupancy required for maximal weight loss efficacy (CB1 receptor)
1 | Cc1c(C(=O)NN2CCCCC2)nn(-c2ccc(Cl)cc2Cl)c1-c1ccc(Cl)cc1 [SR141716A] | ~ 50% | 
2 | C[C@H](NC(=O)C(C)(C)Oc1ccc(C(F)(F)F)cn1)[C@@H](Cc1ccc(Cl)cc1)c1cccc(C#N)c1 [taranabant] |  | 60-90%
